Data published in patent US4330552A, “Antiinflammatory 4,5-diaryl-2-arylthioimidazoles” (E. I. Du Pont de Nemours and Company, priority 1980, dated 1982).

Test system: adjuvant-induced arthritis in rats
Assay: Established Adjuvant-Induced Arthritis in Rats (paw volume reduction)
Assay type: in vivo, Lewis (Wistar) male rats
Conditions: oral gavage once daily for 7 days (days 14-20), paw volume on day 21; for ED50: Rattus norvegicus, estimated from dose-response regression lines by inspection, read-out: Adjuvant Arthritis ED50 (50% decrease from control paw volume)

Structure (SMILES) | ED50 [mg/kg] | percent paw volume reduction at the dose indicated (25 mg/kg) [%] | further results
COc1ccc(Sc2nc(-c3ccc(OC)cc3)c(-c3ccc(OC)cc3)[nH]2)cc1 [Example 4] | 13 |  | 
COc1ccc(-c2nc(Sc3ccc(Cl)cc3)[nH]c2-c2ccc(OC)cc2)cc1 [Example 1, 4,5-Bis(4-methoxyphenyl)-2-(4-chlorophenylthio)-1H-imidazole] | 10 |  | 
COc1ccc(-c2nc(Sc3ccc(F)cc3)[nH]c2-c2ccc(OC)cc2)cc1 [Example 3] |  | 35 | 
COc1ccc(-c2nc(S(=O)(=O)c3ccc(F)cc3)[nH]c2-c2ccc(OC)cc2)cc1 [Example 7] |  |  | percent paw volume reduction at the dose indicated (27 mg/kg): 0%
COc1ccc(-c2nc(S(=O)(=O)c3ccc(OC)cc3)[nH]c2-c2ccc(OC)cc2)cc1 [Example 8] |  | 16 | 
COc1ccc(-c2nc(Sc3ccccc3)[nH]c2-c2ccc(OC)cc2)cc1 [Example 2] |  | 32 | percent paw volume reduction at the dose indicated (50 mg/kg): 28%; percent paw volume reduction at the dose indicated (100 mg/kg): 32%
COc1ccc(-c2nc(S(=O)(=O)c3ccc(Cl)cc3)[nH]c2-c2ccc(OC)cc2)cc1 [Example 5, 4,5-Bis(4-methoxyphenyl)-2-(4-chlorophenylsulfonyl)-1H-imidazole] |  | 31 | 
COc1ccc(-c2nc(S(=O)(=O)c3ccccc3)[nH]c2-c2ccc(OC)cc2)cc1 [Example 6] | 58 |  | 
